Measured values reported in EP1379539B1, “METHODS AND MATERIALS FOR MAKING AND USING TRANSGENIC DICAMBA-DEGRADING ORGANISMS” (BOARD OF REGENTS OF THE UNIVERSITY OF NEBRASKA, priority 2001, dated 2002).
Like-named read-outs stand apart in the source and are kept apart here.

Legend:
[1] = test system: Transgenic plants containing the three gene construct (oxygenase, ferredoxin and reductase genes)
wild type tobacco plants = conditions: for effect on non-transgenic plants: sprayed
[2] = test system: transgenic tobacco plants bearing the oxygenase gene constructs with the transit peptide; conditions: 0.5 lbs/acre to 5 lbs/acre tested
[3] = test system: Transgenic tobacco plants bearing oxygenase gene constructs but lacking the transit peptide coding sequence; conditions: sprayed, 0.5 lbs/acre to 5 lbs/acre tested

COc1c(Cl)ccc(Cl)c1C(=O)O [dicamba, 2-methoxy-3,6-dichlorobenzoic acid]
effect on transgenic plants ([1]; 0.125 Ib/acre dicamba, sprayed): grew and were healthy
predicted resistance to dicamba ([1]; predicted from plants with the oxygenase construct alone): ≥ 2.5 Ib/acre
effect on non-transgenic plants (wild type tobacco plants; 0.125 Ib/acre dicamba): reduced growth, withering and severe necrosis
sensitivity of the wild type plants (wild type tobacco plants; 0.5 lbs/acre of dicamba, sprayed at 10-12-leaf stage with non-ionic surfactant): 100%
effect on non-transgenic plants (wild type tobacco plants; same amounts of dicamba as the transgenic plants (0.5 lbs/acre to 5 lbs/acre)): reduced growth, withering and severe necrosis
concentration of dicamba at which sprayed plants grew and were healthy [2]: up to 5 lbs/acre
dicamba treatment to which plants displayed resistance (grew and were healthy) [3]: at least 2.5 lbs/acre
